How the values were obtained:
Type in all cases: biochemical
AKT1 = biological target: T1, AKT1 (Homo sapiens, UniProt P31749); assay: AKT Kinase Assay (IMAP fluorescent polarisation) vs AKT1; settings: activated AKT1, FAM Crosstide substrate
T1 construct: purchased SignalChem
Procedure: (§1) Testing of the compounds was performed using an AKT Kinase Assay:
(§2) Activated AKT isoforms 1, 2 and 3 were assayed utilising a 5′ FAM Crosstide (Seq. GRPRTSSFAEG-OH). The extent of kinase phosphorylation was determined by fluorescent polarisation using IMAP progressive binding reagent, which introduces binding beads which allow the reagent to specifically bind to phosphate residues via covalent co-ordination complex bonds.
(§3) iMAP binding solution stops Crosstide/kinase interaction and specifically binds phosphorylated substrates. The degree of phosphorylation is determined by fluorescent polarisation (excitation 485 nm; emission 528 nm) or the reduction in speed of rotation of the excited substrate.
(§4) The following materials were used in the assay: • a) Activated AKT isoforms (SignalChem.) dissolved in Complete Reaction buffer at a pre-determined concentration selected so that the assay was carried out in the linear range. • b) AKT substrate peptide: FAM Crosstide (R7110) Molecular Devices, diluted in complete reaction buffer. • c) iMAP Progressive Screening Express Kit (R8127) Molecular Devices • d) Complete Reaction Buffer containing 0.1% BSA, 10 mM Tris-HCl, 10 mM MgCl2, 0.05% NaN3 and 0.01% phosphate free BSA, 1 mM DTT • e) Progressive Binding Solution containing 75% Buffer A, 25% Buffer B and low volume Binding Reagent which contains the binding entity for the assay • f) ATP diluted in complete reaction buffer • g) Black polystyrene 384 well assay plates (Nunc). • h) Biotek Synergy 4 Hybrid Plate reader.
(§5) 5 μl of test compound was dissolved in DMSO (Sigma Aldrich) and serially diluted in complete reaction buffer to give a fourteen point half log dose response and plated into 384 well black plates. The compound was incubated at room temperature with activated AKT isoform (5 μl) at the pre-determined concentration, for 45 minutes.
(§6) 2.5 μl of ATP solution mixed with 2.5 μl of AKT substrate peptide (FAM Crosstide (R7110) Molecular Devices) were dispensed into each well and the plate centrifuged at 1000 rpm for 20 seconds to ensure homogenous mixing of reagents. The reaction mix was incubated in the dark for one hour at room temperature.
(§7) The kinase reaction was stopped by the addition of Progressive Binding Solution and the mixture allowed to equilibrate for one hour in the dark, at room temperature.
(§8) The fluorescent polarisation generated in each well was determined using a […] Synergy 4 Hybrid plate reader. In brief, each reaction solution was excited at 485 nm with the emission measured at 528 nm in both the parallel and perpendicular pathway.
(§9) The polarisation value generated in each well was calculated by Gen5 software (Biotek) and the % inhibition of kinase activity compared to vehicle control was calculated via GraphPad Prism. IC50 values for each compound were calculated by non-linear regression analysis using Prism software.
(§10) All plates were internally controlled by two methods. Firstly, by calculating the signal:noise ratio; based on kinase polarisation without inhibitor and polarisation generated by complete reaction buffer in the absence of activated kinase. Secondly by determining IC50 values generated by known inhibitors of the AKT isoforms.

AKT2 = biological target: T2, AKT2 (Homo sapiens, UniProt P31751); assay: AKT Kinase Assay (IMAP fluorescent polarisation) vs AKT2; settings: activated AKT2, FAM Crosstide substrate
T2 construct: purchased SignalChem
Procedure: as §1, §2, §3, §4, §5, §6, §7, §8, §9, §10

AKT3 = biological target: T3, AKT3 (Homo sapiens, UniProt Q9Y243); assay: AKT Kinase Assay (IMAP fluorescent polarisation) vs AKT3; settings: activated AKT3, FAM Crosstide substrate
T3 construct: purchased SignalChem
Procedure: as §1, §2, §3, §4, §5, §6, §7, §8, §9, §10

T1 sequence (P31749 whole entry): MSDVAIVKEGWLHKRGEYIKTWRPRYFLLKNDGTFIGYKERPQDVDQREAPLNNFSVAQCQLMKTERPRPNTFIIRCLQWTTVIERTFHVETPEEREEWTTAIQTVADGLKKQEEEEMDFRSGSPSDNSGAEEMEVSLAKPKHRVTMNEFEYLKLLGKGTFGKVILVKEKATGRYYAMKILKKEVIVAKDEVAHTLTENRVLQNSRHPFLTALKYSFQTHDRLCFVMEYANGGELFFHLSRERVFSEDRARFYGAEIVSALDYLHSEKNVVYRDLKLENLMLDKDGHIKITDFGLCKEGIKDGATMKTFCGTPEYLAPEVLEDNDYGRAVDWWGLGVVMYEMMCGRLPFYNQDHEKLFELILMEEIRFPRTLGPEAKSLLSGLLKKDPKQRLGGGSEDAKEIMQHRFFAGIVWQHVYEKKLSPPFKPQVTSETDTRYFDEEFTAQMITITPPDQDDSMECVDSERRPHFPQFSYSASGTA
T2 sequence (P31751 whole entry): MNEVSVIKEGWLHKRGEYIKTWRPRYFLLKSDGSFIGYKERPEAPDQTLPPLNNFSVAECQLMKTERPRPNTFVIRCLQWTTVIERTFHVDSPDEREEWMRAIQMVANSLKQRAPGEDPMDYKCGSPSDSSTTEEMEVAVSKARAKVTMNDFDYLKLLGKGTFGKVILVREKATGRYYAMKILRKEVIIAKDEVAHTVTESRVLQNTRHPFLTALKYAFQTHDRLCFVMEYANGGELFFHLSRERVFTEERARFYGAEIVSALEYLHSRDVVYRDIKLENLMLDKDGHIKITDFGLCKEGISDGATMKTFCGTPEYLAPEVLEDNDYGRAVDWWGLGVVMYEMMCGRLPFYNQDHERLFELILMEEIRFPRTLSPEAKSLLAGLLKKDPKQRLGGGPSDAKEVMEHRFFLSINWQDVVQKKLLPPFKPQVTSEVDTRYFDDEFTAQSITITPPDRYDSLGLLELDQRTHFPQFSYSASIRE
T3 sequence (Q9Y243 whole entry): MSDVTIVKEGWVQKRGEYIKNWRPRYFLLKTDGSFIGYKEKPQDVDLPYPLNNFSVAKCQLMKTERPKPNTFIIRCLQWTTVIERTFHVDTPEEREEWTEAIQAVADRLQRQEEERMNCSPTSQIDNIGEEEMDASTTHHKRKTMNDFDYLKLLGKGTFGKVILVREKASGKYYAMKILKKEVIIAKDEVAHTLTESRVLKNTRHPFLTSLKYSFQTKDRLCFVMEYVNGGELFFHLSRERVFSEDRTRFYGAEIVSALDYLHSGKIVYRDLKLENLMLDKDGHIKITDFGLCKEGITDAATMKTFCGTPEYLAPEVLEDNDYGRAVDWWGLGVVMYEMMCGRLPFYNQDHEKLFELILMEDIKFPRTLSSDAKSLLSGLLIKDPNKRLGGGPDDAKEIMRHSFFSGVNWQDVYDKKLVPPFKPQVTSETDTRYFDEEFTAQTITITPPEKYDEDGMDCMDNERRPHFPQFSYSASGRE

SMILES | IC50 (AKT1) | IC50 (AKT2) | IC50 (AKT3)
NC1(c2ccc(-c3c(-c4ccccc4)oc4ccc(F)cc4c3=O)cc2)CCC1 [Example 1, 3-[4-(1-Amino-cyclobutyl)-phenyl]-6-fluoro-2-phenyl-chromen-4-one] | 1 to 10 µM | 1000 to 10000 nM | > 10 µM
NC1(c2ccc(-c3c(-c4ccccc4)oc4c(F)cccc4c3=O)cc2)CCC1 [Example 2, 3-[4-(1-Amino-cyclobutyl)-phenyl]-8-fluoro-2-phenyl-chromen-4-one] | ≤ 1 µM | 1000 to 10000 nM | > 10 µM
NC1(c2ccc(-c3c(-c4ccccc4)oc4cccc(F)c4c3=O)cc2)CCC1 [Example 3, 3-[4-(1-Amino-cyclobutyl)-phenyl]-5-fluoro-2-phenyl-chromen-4-one] | 1 to 10 µM | 1000 to 10000 nM | > 10 µM
COc1ccc2oc(-c3ccccc3)c(-c3ccc(C4(N)CCC4)cc3)c(=O)c2c1 [Example 5, 3-[4-(1-Amino-cyclobutyl)-phenyl]-6-methoxy-2-phenyl-chromen-4-one] | 1 to 10 µM | 1000 to 10000 nM | > 10 µM
COc1cc2c(=O)c(-c3ccc(C4(N)CCC4)cc3)c(-c3ccccc3)oc2cc1C [Example 6, 3-[4-(1-Amino-cyclobutyl)-phenyl]-6-methoxy-7-methyl-2-phenyl-chromen-4-one] | > 10 µM | 1000 to 10000 nM | > 10 µM
COc1cc2oc(-c3ccccc3)c(-c3ccc(C4(N)CCC4)cc3)c(=O)c2cc1C [Example 7, 3-[4-(1-Amino-cyclobutyl)-phenyl]-7-methoxy-6-methyl-2-phenyl-chromen-4-one] | 1 to 10 µM | 1000 to 10000 nM | > 10 µM
NC1(c2ccc(-c3c(-c4ccccc4)oc4cc5c(cc4c3=O)OCCO5)cc2)CCC1 [Example 8, 7-[4-(1-Amino-cyclobutyl)-phenyl]-6-Phenyl-2,3-dihydro-1,4,5-trioxa-anthracen-8-one] | 1 to 10 µM | 1000 to 10000 nM | > 10 µM
COc1ccc2c(=O)c(-c3ccc(C4(N)CCC4)cc3)c(-c3ccccc3)oc2c1Br [Example 9, 3-[4-(1-Amino-cyclobutyl)-phenyl]-8-bromo-7-methoxy-2-phenyl-chromen-4-one] | ≤ 1 µM | ≤ 1000 nM | 1 to 10 µM
COc1cc2oc(-c3ccccc3)c(-c3ccc(C4(N)CCC4)cc3)c(=O)c2cc1C(N)=O [Example 10, 3-[4-(1-Amino-cyclobutyl)-phenyl]-7-methoxy-4-oxo-2-phenyl-4H-chromene-6-carboxylic acid amide] | 1 to 10 µM | ≤ 1000 nM | 1 to 10 µM
COc1cc2oc(-c3ccccc3)c(-c3ccc(C4(N)CCC4)cc3)c(=O)c2cc1C#N [Example 11, 3-[4-(1-Amino-cyclobutyl)-phenyl]-7-methoxy-4-oxo-2-phenyl-4H-chromene-6-carbonitrile] | 1 to 10 µM | 1000 to 10000 nM | > 10 µM
COc1ccc2c(=O)c(-c3ccc(C4(N)CCC4)cc3)c(-c3ccccc3)oc2c1C#N [Example 12, 3-[4-(1-Amino-cyclobutyl)-phenyl]-7-methoxy-4-oxo-2-phenyl-4H-chromene-8-carbonitrile] | 1 to 10 µM | ≤ 1000 nM | 1 to 10 µM
NC1(c2ccc(-c3c(-c4ccccc4)oc4cc(Br)ccc4c3=O)cc2)CCC1 [Example 13, 3-[4-(1-Amino-cyclobutyl)-phenyl]-2-phenyl-7-bromo-chromen-4-one] | 1 to 10 µM | 1000 to 10000 nM | > 10 µM
COc1ccc2c(=O)c(-c3ccc(C4(N)CCC4)cc3)c(-c3ccccc3)oc2c1 [Example 14] | 1 to 10 µM | 1000 to 10000 nM | > 10 µM
COc1cc2oc(-c3ccccc3)c(-c3ccc(C4(N)CCC4)cc3)c(=O)c2cc1OC [Example 15, 3-[4-(1-Amino-cyclobutyl)-phenyl]-6,7-dimethoxy-2-phenyl-chromen-4-one] | 1 to 10 µM | ≤ 1000 nM | 1 to 10 µM
COc1cccc2c(=O)c(-c3ccc(C4(N)CCC4)cc3)c(-c3ccccc3)oc12 [Example 16, 3-[4-(1-Amino-cyclobutyl)-phenyl]-8-methoxy-2-phenyl-chromen-4-one] | 1 to 10 µM | 1000 to 10000 nM | 1 to 10 µM
NC1(c2ccc(-c3c(-c4ccccc4)oc4cc(-c5ccn[nH]5)ccc4c3=O)cc2)CCC1 [Example 17] | > 10 µM | 1000 to 10000 nM | > 10 µM
NC(=O)c1ccc2c(=O)c(-c3ccc(C4(N)CCC4)cc3)c(-c3ccccc3)oc2c1 [Example 18, 3-[4-(1-Amino-cyclobutyl)-phenyl]-4-oxo-2-phenyl-4H-chromene-7-carboxylic acid amide] | > 10 µM | 1000 to 10000 nM | > 10 µM
NC1(c2ccc(-c3c(-c4ccccc4)oc4ccc(Br)cc4c3=O)cc2)CCC1 [Example 19, 3-[4-(1-Amino-cyclobutyl)-phenyl]-6-bromo-2-phenyl-chromen-4-one] | 1 to 10 µM | 1000 to 10000 nM | 1 to 10 µM
N#Cc1ccc2oc(-c3ccccc3)c(-c3ccc(C4(N)CCC4)cc3)c(=O)c2c1 [Example 21, 3-[4-(1-Amino-cyclobutyl)-phenyl]-4-oxo-2-phenyl-4H-chromene-6-carbonitrile] | 1 to 10 µM | 1000 to 10000 nM | > 10 µM
NC1(c2ccc(-c3c(-c4ccccc4)oc4ccc(-n5ccnc5)cc4c3=O)cc2)CCC1 [Example 22, 3-[4-(1-Amino-cyclobutyl)-phenyl]-6-imidazol-1-yl-2-phenyl-chromen-4-one] | 1 to 10 µM | 1000 to 10000 nM | > 10 µM
NC1(c2ccc(-c3c(-c4ccccc4)oc4cc(F)c(F)cc4c3=O)cc2)CCC1 [Example 23, 3-[4-(1-Amino-cyclobutyl)-phenyl]-6,7-difluoro-2-phenyl-chromen-4-one] | 1 to 10 µM | 1000 to 10000 nM | > 10 µM
NC1(c2ccc(-c3c(-c4ccccc4)oc4cc(OC(F)(F)F)ccc4c3=O)cc2)CCC1 [Example 24, 3-[4-(1-Amino-cyclobutyl)-phenyl]-2-phenyl-7-trifluoromethoxy-chromen-4-one] | > 10 µM | 1000 to 10000 nM | > 10 µM
NC1(c2ccc(-c3c(-c4ccccc4)oc4ccc(OC(F)(F)F)cc4c3=O)cc2)CCC1 [Example 25, 3-[4-(1-Amino-cyclobutyl)-phenyl]-2-phenyl-6-trifluoromethoxy-chromen-4-one] | > 10 µM | 1000 to 10000 nM | > 10 µM
COc1cc2c(=O)c(-c3ccc(C4(N)CCC4)cc3)c(-c3ccccc3)oc2cc1Br [Example 26, 3-[4-(1-Amino-cyclobutyl)-phenyl]-7-bromo-6-methoxy-2-phenyl-chromen-4-one] | > 10 µM | 1000 to 10000 nM | > 10 µM
COc1cc2oc(-c3ccccc3)c(-c3ccc(C4(N)CCC4)cc3)c(=O)c2cc1Br [Example 27, 3-[4-(1-Amino-cyclobutyl)-phenyl]-6-bromo-7-methoxy-2-phenyl-chromen-4-one] | > 10 µM | 1000 to 10000 nM | > 10 µM
COc1cc2c(=O)c(-c3ccc(C4(N)CCC4)cc3)c(-c3ccccc3)oc2cc1-c1ccn[nH]1 [Example 28, 3-[4-(1-Amino-cyclobutyl)-phenyl]-6-methoxy-2-phenyl-7-(2H-pyrazol-3yl)-chromen-4-one] | > 10 µM | 1000 to 10000 nM | > 10 µM
COc1cc2c(=O)c(-c3ccc(C4(N)CCC4)cc3)c(-c3ccccc3)oc2cc1C(N)=O [Example 29, 3-[4-(1-Amino-cyclobutyl)-phenyl]-6-methoxy-4-oxo-2-phenyl-4H-chromene-7-carboxylic acid amide] | 1 to 10 µM | ≤ 1000 nM | > 10 µM
COc1cc2c(=O)c(-c3ccc(C4(N)CCC4)cc3)c(-c3ccccc3)oc2cc1C#N [Example 30, 3-[4-(1-Amino-cyclobutyl)-phenyl]-6-methoxy-4-oxo-2-phenyl-4H-chromene-7-carbonitrile] | > 10 µM | 1000 to 10000 nM | 1 to 10 µM

— patent US8546376B2, “Pharmaceutical compounds” (Almac Discovery Limited, priority 2009, dated 2013)
